Measurements taken from PubChem BioAssay AID248 (DTP/NCI, 2004).
Where “and” joins values, the source holds several entries; their conditions need not be identical. Equal entries are not always repeated. Toxic doses and inconclusive results are not listed. No stated cut-off is given here; in the data, active means T/C of 150% or more; inactive means T/C below 125%.

Tested on: L1210 leukemia ip in BDF1 mice, survival T/C
Assay: NCI In Vivo Anticancer Drug Screen. Data for tumor model L1210 Leukemia (intraperitoneal) in B6D2F1 (BDF1) mice
Conditions: endpoint: mean survival time, higher = longer survival
Method in brief: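 Transplanted-tumor mice were given test agent; controls received vehicle only. Survival readings from the two groups were divided (treated over control).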

[1] = dose: 100.0 mg/kg/injection, schedule: Q01DX009 (ip), vehicle: Klucel (hydroxypropylcellulose) (HPC)
[2] = dose: 200.0 mg/kg/injection, schedule: Q01DX009 (ip), vehicle: Klucel (hydroxypropylcellulose) (HPC)
[3] = dose: 50.0 mg/kg/injection, schedule: Q01DX009 (ip), vehicle: Klucel (hydroxypropylcellulose) (HPC)
[4] = dose: 100.0 mg/kg/injection, schedule: Q04DX003 (ip), vehicle: Klucel (hydroxypropylcellulose) (HPC)
[5] = dose: 200.0 mg/kg/injection, schedule: Q04DX003 (ip), vehicle: Klucel (hydroxypropylcellulose) (HPC)
[6] = dose: 50.0 mg/kg/injection, schedule: Q01DX009 (ip), vehicle: saline with Tween-80
[7] = dose: 25.0 mg/kg/injection, schedule: Q01DX009 (ip), vehicle: saline
[8] = dose: 100.0 mg/kg/injection, schedule: Q01DX001 (ip), vehicle: saline
[9] = dose: 100.0 mg/kg/injection, schedule: Q04DX003 (ip), vehicle: saline
[10] = dose: 200.0 mg/kg/injection, schedule: Q04DX003 (ip), vehicle: saline
[11] = dose: 400.0 mg/kg/injection, schedule: Q04DX003 (ip), vehicle: saline
[12] = dose: 200.0 mg/kg/injection, schedule: Q01DX001 (ip), vehicle: saline
[13] = dose: 400.0 mg/kg/injection, schedule: Q01DX001 (ip), vehicle: saline

Measured: T/C

O=C(Nc1cccc(F)c1)Nc1ccc(Cl)cc1Cl
inactive: [1] 96 % of control | [2] 91 % of control

COC(=O)/C=C1\Nc2ccc([N+](=O)[O-])cc2NC1=O
inactive: [3] 87 % of control | [1] 94 % of control | [2] 100 % of control

CCN(CC)/N=C/CC(C)Nc1ccnc2cc(Cl)ccc12 (configuration not stated)
inactive: dose: 3.12 mg/kg/injection, schedule: Q01DX009 (ip), vehicle: acetone 92 % of control | dose: 6.25 mg/kg/injection, schedule: Q01DX009 (ip), vehicle: acetone 97 % of control | dose: 12.5 mg/kg/injection, schedule: Q04DX003 (ip), vehicle: saline 93 % of control

CCCCCCCCCCC(=O)N1CCOCC1
inactive: dose: 12.5 mg/kg/injection, schedule: Q04DX003 (ip), vehicle: saline with Tween-80 98 % of control | dose: 25.0 mg/kg/injection, schedule: Q04DX003 (ip), vehicle: saline with Tween-80 95 % of control | dose: 50.0 mg/kg/injection, schedule: Q04DX003 (ip), vehicle: saline with Tween-80 101 % of control

COc1cccc(OC)c1C#N
inactive: [3] 95 % of control | [1] 96 % of control | [4] 98 % of control | [2] 95 % of control | [5] 98 % of control

CCN=C(c1ccc(NC(=O)c2ccc(C(=O)Nc3ccc(C(=NCC)N(CC)C(C)=O)cc3)cc2)cc1)N(CC)C(C)=O
inactive: dose: 125.0 mg/kg/injection, schedule: Q01DX015 (ip), vehicle: methylcellulose (MC) 95 % of control | dose: 375.0 mg/kg/injection, schedule: Q01DX015 (ip), vehicle: methylcellulose (MC) 104 % of control | dose: 500.0 mg/kg/injection, schedule: Q01DX015 (ip), vehicle: methylcellulose (MC) 103 % of control

C[n+]1cccc(C(=O)N/N=C/C=C/c2ccccc2)c1
inactive: [6] 96 % of control | dose: 100.0 mg/kg/injection, schedule: Q01DX009 (ip), vehicle: saline with Tween-80 100 % of control

CN(C)c1ccc2nc3ccc(=[N+](C)C)cc-3sc2c1
inactive: dose: 5.0 mg/kg/injection, schedule: Q01DX Z (ip), vehicle: carboxymethylcellulose (CMC) 93 % of control and 90 % of control | dose: 10.0 mg/kg/injection, schedule: Q01DX Z (ip), vehicle: carboxymethylcellulose (CMC) 100 % of control and 92 % of control | dose: 12.5 mg/kg/injection, schedule: Q01DX009 (ip), vehicle: saline 107 % of control | dose: 20.0 mg/kg/injection, schedule: Q01DX Z (ip), vehicle: carboxymethylcellulose (CMC) 98 % of control and 92 % of control | dose: 25.0 mg/kg/injection, schedule: Q01DX001 (ip), vehicle: saline 102 % of control | [7] 94 % of control | dose: 40.0 mg/kg/injection, schedule: Q01DX Z (ip), vehicle: carboxymethylcellulose (CMC) 105 % of control | dose: 50.0 mg/kg/injection, schedule: Q01DX001 (ip), vehicle: saline 97 % of control | dose: 50.0 mg/kg/injection, schedule: Q01DX009 (ip), vehicle: saline 103 % of control | [8] 108 % of control

CCCCCCNC(C)(C)[P+](=O)O
inactive: [9] 105 % of control | [10] 108 % of control | [11] 102 % of control

NNc1ncnc2nncnc12
inactive: dose: 9.5 mg/kg/injection, schedule: Q01DX001 (ip), vehicle: other 98 % of control | dose: 19.0 mg/kg/injection, schedule: Q01DX001 (ip), vehicle: other 105 % of control | dose: 38.0 mg/kg/injection, schedule: Q01DX001 (ip), vehicle: other 104 % of control

O=C(CCCl)[O][Pb]([O]C(=O)CCCl)([c]1ccccc1)[c]1ccccc1
inactive: [9] 108 % of control

C[n+]1cc(N)cc2ccccc21
inactive: dose: 10.0 mg/kg/injection, schedule: Q01DX001 (ip), vehicle: other 105 % of control | dose: 20.0 mg/kg/injection, schedule: Q01DX001 (ip), vehicle: other 105 % of control | dose: 40.0 mg/kg/injection, schedule: Q01DX001 (ip), vehicle: other 109 % of control

Nc1nc2ncc(CNc3ccc(C(=O)NC(CCC(=O)O)C(=O)O)cc3)nc2c(=O)[nH]1 (configuration not stated)
inactive: dose: 1.6 mg/kg/injection, schedule: Q01DX009 (ip), vehicle: saline with Tween-80 93 % of control and 98 % of control | dose: 3.2 mg/kg/injection, schedule: Q01DX009 (ip), vehicle: saline with Tween-80 101 % of control and 109 % of control | dose: 6.3 mg/kg/injection, schedule: Q01DX009 (ip), vehicle: saline with Tween-80 93 % of control and 94 % of control | dose: 6.95 mg/kg/injection, schedule: Q01DX Z (ip), vehicle: carboxymethylcellulose (CMC) 96 % of control | dose: 12.5 mg/kg/injection, schedule: Q01DX009 (ip), vehicle: saline with Tween-80 101 % of control and 102 % of control | dose: 12.5 mg/kg/injection, schedule: Q04DX002 (ip), vehicle: saline with Tween-80 97 % of control and 100 % of control | dose: 13.9 mg/kg/injection, schedule: Q01DX Z (ip), vehicle: carboxymethylcellulose (CMC) 103 % of control | dose: 25.0 mg/kg/injection, schedule: Q01DX009 (ip), vehicle: saline with Tween-80 93 % of control and 100 % of control | dose: 25.0 mg/kg/injection, schedule: Q04DX002 (ip), vehicle: saline with Tween-80 97 % of control and 91 % of control | dose: 27.8 mg/kg/injection, schedule: Q01DX Z (ip), vehicle: carboxymethylcellulose (CMC) 101 % of control | [6] 98 % of control and 111 % of control | dose: 50.0 mg/kg/injection, schedule: Q04DX002 (ip), vehicle: saline with Tween-80 99 % of control and 100 % of control | dose: 55.6 mg/kg/injection, schedule: Q01DX Z (ip), vehicle: carboxymethylcellulose (CMC) 97 % of control | dose: 100.0 mg/kg/injection, schedule: Q04DX002 (ip), vehicle: saline with Tween-80 99 % of control and 102 % of control | dose: 200.0 mg/kg/injection, schedule: Q04DX002 (ip), vehicle: saline with Tween-80 103 % of control

COc1cc(OC)c(NC(=O)Nc2cc([N+](=O)[O-])ccc2C)cc1Cl
inactive: dose: 100.0 mg/kg/injection, schedule: Q04DX002 (ip), vehicle: Klucel (hydroxypropylcellulose) (HPC) 97 % of control | dose: 200.0 mg/kg/injection, schedule: Q04DX002 (ip), vehicle: Klucel (hydroxypropylcellulose) (HPC) 108 % of control | dose: 400.0 mg/kg/injection, schedule: Q04DX002 (ip), vehicle: Klucel (hydroxypropylcellulose) (HPC) 114 % of control

N#CCCCCCl
inactive: dose: 6.0 mg/kg/injection, schedule: Q01DX009 (ip), vehicle: saline 103 % of control | dose: 12.0 mg/kg/injection, schedule: Q01DX009 (ip), vehicle: saline 105 % of control | dose: 12.0 mg/kg/injection, schedule: Q04DX003 (ip), vehicle: saline 97 % of control | [7] 103 % of control | dose: 25.0 mg/kg/injection, schedule: Q04DX003 (ip), vehicle: saline 96 % of control

CC(C)(C)CC(N)=O
inactive: [8] 106 % of control | dose: 100.0 mg/kg/injection, schedule: Q01DX009 (ip), vehicle: saline 101 % of control | [4] 117 % of control | [9] 103 % of control | dose: 133.0 mg/kg/injection, schedule: Q01DX009 (ip), vehicle: Klucel (hydroxypropylcellulose) (HPC) 111 % of control | dose: 133.0 mg/kg/injection, schedule: Q04DX003 (ip), vehicle: Klucel (hydroxypropylcellulose) (HPC) 123 % of control | [12] 97 % of control | [2] 111 % of control | dose: 200.0 mg/kg/injection, schedule: Q01DX009 (ip), vehicle: saline 89 % of control | [5] 124 % of control | [10] 97 % of control | dose: 300.0 mg/kg/injection, schedule: Q01DX009 (ip), vehicle: Klucel (hydroxypropylcellulose) (HPC) 105 % of control | dose: 300.0 mg/kg/injection, schedule: Q04DX003 (ip), vehicle: Klucel (hydroxypropylcellulose) (HPC) 98 % of control | [13] 103 % of control | dose: 400.0 mg/kg/injection, schedule: Q01DX009 (ip), vehicle: saline 97 % of control | dose: 400.0 mg/kg/injection, schedule: Q04DX003 (ip), vehicle: Klucel (hydroxypropylcellulose) (HPC) 109 % of control | [11] 103 % of control

CCCCCCCCOC(=O)Nc1ccc(S(=O)(=O)NC2CCCCC2)cc1
inactive: dose: 100.0 mg/kg/injection, schedule: Q01DX001 (ip), vehicle: carboxymethylcellulose (CMC) 89 % of control | dose: 200.0 mg/kg/injection, schedule: Q01DX001 (ip), vehicle: carboxymethylcellulose (CMC) 89 % of control | dose: 400.0 mg/kg/injection, schedule: Q01DX001 (ip), vehicle: carboxymethylcellulose (CMC) 94 % of control

CSc1cc(N)nc2c1ncn2C1OC(CO)C(O)C1O (configuration not stated)
inactive: [8] 113 % of control | [12] 93 % of control | [13] 103 % of control
